The text below walks through data of the supplement of paper PMC7224384.

For test [1], the system named is MDA-MB-453. The test is described as follows: drug sensitivity score (DSS), single agent (DSS (weighted AUC score)); higher = more sensitive (stronger viability decrease); extreme values may be limits of the assay. The following applies: BLU9931 0 nM; 72 h. The gist of the method: (§1)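 Compounds from the FIMM Oncology set were predispensed in singlicate at five 10-fold dilutions (10,000-fold range) on 384-well plates. Each well then received 2000 MDA-MB-453 cells in medium with or without an FGFR4 inhibitor (100 nM final) and was kept at 37 °C, 5% CO2. Cellular ATP was read with CellTiterGlo 2.0 after 72 h and normalised per plate to percent viability from control wells. The drug sensitivity score is a weighted area under a four-parameter logistic fit.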

For test [2], the system named is MDA-MB-453. In words: drug sensitivity score (DSS), in combination with BLU9931 (DSS (weighted AUC score)); higher = more sensitive (stronger viability decrease); extreme values may be limits of the assay. The following applies: BLU9931 100 nM; 72 h. The gist of the method: as §1

As to `CC1(COc2ccc3c(c2)ncn3-c2ccc3cccc(N4CCC(N)CC4)c3n2)COC1` [Crenolanib], the drug sensitivity score was 7.5 with MDA-MB-453 [1] and 6.5 in the test on MDA-MB-453 [2].
On to `C[C@@H](Oc1cc(-c2cnn(C3CCNCC3)c2)cnc1N)c1c(Cl)ccc(F)c1Cl` [Crizotinib], for which the drug sensitivity score in the test on MDA-MB-453 [1] and with MDA-MB-453 [2] was 0 in each case.
`Nc1ccn([C@@H]2O[C@H](CO)[C@@H](O)[C@@H]2O)c(=O)n1` [Cytarabine]: the values for the drug sensitivity score in the test on MDA-MB-453 [1] and in the test with MDA-MB-453 [2] were 0.8 and 0.1, respectively.
As for `CC(C)(C)c1nc(-c2cccc(NS(=O)(=O)c3c(F)cccc3F)c2F)c(-c2ccnc(N)n2)s1` [Dabrafenib], the drug sensitivity score in the test with MDA-MB-453 [1] came out at 1.5; with MDA-MB-453 [2], 0.4.
In the case of `COc1cc2ncnc(Nc3ccc(F)c(Cl)c3)c2cc1NC(=O)/C=C/CN1CCCCC1` [Dacomitinib], the results for the drug sensitivity score in the test with MDA-MB-453 [1] and with MDA-MB-453 [2] were 7.3 and 8.6, respectively.
Take `Cc1c2oc3c(C)ccc(C(=O)N[C@@H]4C(=O)N[C@H](C(C)C)C(=O)N5CCC[C@H]5C(=O)N(C)CC(=O)N(C)[C@@H](C(C)C)C(=O)O[C@@H]4C)c3nc-2c(C(=O)N[C@@H]2C(=O)N[C@H](C(C)C)C(=O)N3CCC[C@H]3C(=O)N(C)CC(=O)N(C)[C@@H](C(C)C)C(=O)O[C@@H]2C)c(N)c1=O` [Dactinomycin]: the drug sensitivity score came out at 21 with MDA-MB-453 [1] and 22 in the test on MDA-MB-453 [2].
On the same counts, the results for `Cn1c(=O)n(-c2ccc(C(C)(C)C#N)cc2)c2c3cc(-c4cnc5ccccc5c4)ccc3ncc21` [Dactolisib] are 16.3 and 18.3.
Turning to `CO[C@@H](C(=O)N1Cc2[nH]nc(NC(=O)c3ccc(N4CCN(C)CC4)cc3)c2C1)c1ccccc1` [Danusertib], the drug sensitivity score came out at 0.3 in the test with MDA-MB-453 [1] and 0 with MDA-MB-453 [2].
As to `O=C(/C=C/c1cccnc1)NCCCCC1CCN(C(=O)c2ccccc2)CC1` [Daporinad], the drug sensitivity score was 30.5 in the test with MDA-MB-453 [1] and 28.6 in the test on MDA-MB-453 [2].
Regarding `CCN(CC)CCN(Cc1ccc(-c2ccc(C(F)(F)F)cc2)cc1)C(=O)Cn1c(SCc2ccc(F)cc2)nc(=O)c2c1CCC2` [Darapladib], the drug sensitivity score in the test on MDA-MB-453 [1] was 1.5; with MDA-MB-453 [2], 0.
Take `Cc1nc(Nc2ncc(C(=O)Nc3c(C)cccc3Cl)s2)cc(N2CCN(CCO)CC2)n1` [Dasatinib]: the drug sensitivity score in the test with MDA-MB-453 [1] and in the test on MDA-MB-453 [2] was 0 in each case.
Consider `COc1cccc2c1C(=O)c1c(O)c3c(c(O)c1C2=O)C[C@@](O)(C(C)=O)C[C@@H]3O[C@H]1C[C@H](N)[C@H](O)[C@H](C)O1` [Daunorubicin], for which the values for the drug sensitivity score with MDA-MB-453 [1] and in the test with MDA-MB-453 [2] were 7.4 and 5.4, respectively.
Turning to `CC[C@@](C)(Nc1ccnc(-c2c[nH]c3ncccc23)n1)C(=O)NCC(F)(F)F` [Decernotinib], the drug sensitivity score with MDA-MB-453 [1] and in the test on MDA-MB-453 [2] was 0 in each case.
Turning to `Nc1ncn([C@H]2C[C@H](O)[C@@H](CO)O2)c(=O)n1` [Decitabine], the drug sensitivity score in the test with MDA-MB-453 [1] and in the test on MDA-MB-453 [2] was 0 throughout.
As for `CC(=O)N(O)CCCCCNC(=O)CCC(=O)N(O)CCCCCNC(=O)CCC(=O)N(O)CCCCCN` [Deferoxamine], the drug sensitivity score in the test with MDA-MB-453 [1] was determined as 2.3; in the test on MDA-MB-453 [2] it was 4.3.
`C[C@@H]1C[C@H]2[C@@H]3CCC4=CC(=O)C=C[C@]4(C)[C@@]3(F)[C@@H](O)C[C@]2(C)[C@@]1(O)C(=O)CO` [Dexamethasone]: the drug sensitivity score in the test with MDA-MB-453 [1] was 4; in the test on MDA-MB-453 [2] it was 0.
On to `C[C@H]1O[C@@H](O[C@H]2[C@@H](O)C[C@H](O[C@H]3[C@@H](O)C[C@H](O[C@H]4CC[C@@]5(C)[C@H](CC[C@@H]6[C@@H]5C[C@@H](O)[C@]5(C)[C@@H](C7=CC(=O)OC7)CC[C@]65O)C4)O[C@@H]3C)O[C@@H]2C)C[C@H](O)[C@@H]1O` [Digoxin], for which the drug sensitivity score in the test with MDA-MB-453 [1] was determined as 8.2; with MDA-MB-453 [2], 10.6.
On the same counts, the results for `CCc1cnn2c(NCc3ccc[n+]([O-])c3)cc(N3CCCC[C@H]3CCO)nc12` [Dinaciclib] are 22.1 and 21.5.
On the same counts, the results for `CC(=O)O[C@@]12CO[C@@H]1C[C@H](O)[C@@]1(C)C(=O)[C@H](O)C3=C(C)[C@@H](OC(=O)[C@H](O)[C@@H](NC(=O)OC(C)(C)C)c4ccccc4)C[C@@](O)([C@@H](OC(=O)c4ccccc4)[C@H]21)C3(C)C` [Docetaxel] are 18.3 and 14.1.
Taken in the same sequence, the figures for `Cc1ccc(-n2nc(C(C)(C)C)cc2NC(=O)Nc2ccc(OCCN3CCOCC3)c3ccccc23)cc1` [Doramapimod] were 2.3 and 1.8.
`CN1CCN(c2ccc3nc(-c4c(N)c5c(F)cccc5[nH]c4=O)[nH]c3c2)CC1` [Dovitinib]: the drug sensitivity score in the test with MDA-MB-453 [1] and in the test on MDA-MB-453 [2] was 0 throughout.
Take `COc1cccc2c1C(=O)c1c(O)c3c(c(O)c1C2=O)C[C@@](O)(C(=O)CO)C[C@@H]3O[C@H]1C[C@H](N)[C@H](O)[C@H](C)O1` [Doxorubicin]: the drug sensitivity score in the test with MDA-MB-453 [1] worked out at 6.8; in the test with MDA-MB-453 [2], 5.1.
For the compound `C[C@H](Nc1ncnc2nc[nH]c12)c1cc2cccc(Cl)c2c(=O)n1-c1ccccc1` [Duvelisib], the drug sensitivity score in the test on MDA-MB-453 [1] and in the test with MDA-MB-453 [2] was 0 in each case.
For `Cc1ccc(NS(=O)(=O)c2cccc(C#N)c2)c2[nH]cc(C#N)c12` [E7820], the drug sensitivity score with MDA-MB-453 [1] stood at 3.3; with MDA-MB-453 [2] it was 1.1.
On to `Cc1cc(Nc2cc(N3CCN(C)CC3)nc(/C=C/c3ccccc3)n2)n[nH]1` [ENMD-2076], for which the drug sensitivity score in the test on MDA-MB-453 [1] was 7.1; in the test with MDA-MB-453 [2], 7.8.
In the case of `Cc1cc(C)c(CNC(=O)c2cc(-c3ccc(CN4CCOCC4)cc3)cc3c2cnn3C2CCCC2)c(=O)[nH]1` [EPZ-5687], the figures for the drug sensitivity score in the test with MDA-MB-453 [1] and with MDA-MB-453 [2] were 0.5 and 0, respectively.
For the compound `NC(=O)/C(=C/n1cnc(-c2cc(C(F)(F)F)cc(C(F)(F)F)c2)n1)c1cncnc1` [Eltanexor], the drug sensitivity score amounted to 13.8 with MDA-MB-453 [1] and 14.2 in the test on MDA-MB-453 [2].
As for `CC(C)(O)CNc1nc(Nc2ccnc(C(F)(F)F)c2)nc(-c2cccc(C(F)(F)F)n2)n1` [Enasidenib], the drug sensitivity score in the test with MDA-MB-453 [1] amounted to 0; in the test on MDA-MB-453 [2], 0.1.
With `COC(=O)N[C@@H](C)CNc1nccc(-c2cn(C(C)C)nc2-c2cc(Cl)cc(NS(C)(=O)=O)c2F)n1` [Encorafenib], the drug sensitivity score with MDA-MB-453 [1] worked out at 0.2; in the test on MDA-MB-453 [2], 0.
`C[C@@H]1CN(C(=O)c2ccc(NC(=O)c3cc(O[C@H](C)c4c(Cl)ccc(F)c4Cl)c(N)nn3)cc2)C[C@H](C)N1` [Ensartinib]: the drug sensitivity score in the test on MDA-MB-453 [1] and in the test with MDA-MB-453 [2] was 0 in each case.
As for `Nc1ccccc1NC(=O)c1ccc(CNC(=O)OCc2cccnc2)cc1` [Entinostat], the drug sensitivity score stood at 9.2 in the test on MDA-MB-453 [1] and 8.7 with MDA-MB-453 [2].
In the case of `c1cn2cc(-c3ccc4cn[nH]c4c3)nc(Nc3ccc(N4CCOCC4)cc3)c2n1` [Entospletinib], the drug sensitivity score in the test on MDA-MB-453 [1] and with MDA-MB-453 [2] was 0 throughout.
On to `CN1CCN(c2ccc(C(=O)Nc3n[nH]c4ccc(Cc5cc(F)cc(F)c5)cc34)c(NC3CCOCC3)c2)CC1` [Entrectinib], for which the drug sensitivity score in the test with MDA-MB-453 [1] and in the test with MDA-MB-453 [2] was 0 in each case.
`CNC(=O)c1ccc(N2C(=S)N(c3ccc(C#N)c(C(F)(F)F)c3)C(=O)C2(C)C)cc1F` [Enzalutamide]: the drug sensitivity score worked out at 1.3 with MDA-MB-453 [1] and 0 with MDA-MB-453 [2].
As to `Cn1cc(C2=C(c3cn(C4CCN(Cc5ccccn5)CC4)c4ccccc34)C(=O)NC2=O)c2ccccc21` [Enzastaurin], the drug sensitivity score with MDA-MB-453 [1] and in the test with MDA-MB-453 [2] was 0 each time.
`NS(=O)(=O)NCCNc1nonc1/C(=N/O)Nc1ccc(F)c(Br)c1` [Epacadostat]: the drug sensitivity score in the test with MDA-MB-453 [1] and in the test with MDA-MB-453 [2] was 0 in each case.
For the compound `COc1cccc2c1C(=O)c1c(O)c3c(c(O)c1C2=O)C[C@@](O)(C(=O)CO)C[C@@H]3O[C@H]1C[C@H](N)[C@@H](O)[C@H](C)O1` [Epirubicin], the drug sensitivity score with MDA-MB-453 [1] turned out to be 7.3; in the test on MDA-MB-453 [2], 5.9.
On the same counts, the results for `CCOc1ccccc1-n1c(C(C)N2CCN(C(=O)COc3ccc(Cl)cc3)CC2)nc2ccccc2c1=O` (centres undefined) [Erastin] are 4.1 and 5.6.
On the same counts, the results for `COc1cc(OC)cc(N(CCNC(C)C)c2ccc3ncc(-c4cnn(C)c4)nc3c2)c1` [Erdafitinib] are 4.3 and 0.2.
`C=C1C[C@@H]2CC[C@@]34C[C@H]5O[C@H]6[C@@H](O3)[C@H]3O[C@H](CC[C@@H]3O[C@H]6[C@H]5O4)CC(=O)C[C@@H]3[C@@H](OC)[C@@H](C[C@H](O)CN)O[C@H]3C[C@H]3O[C@@H](CC[C@@H]1O2)C[C@@H](C)C3=C` [Eribulin]: the drug sensitivity score in the test with MDA-MB-453 [1] was determined as 15.5; with MDA-MB-453 [2] it was 13.4.
On to `C#Cc1cccc(Nc2ncnc3cc(OCCOC)c(OCCOC)cc23)c1` [Erlotinib], for which the drug sensitivity score in the test with MDA-MB-453 [1] was found to be 2.7; in the test on MDA-MB-453 [2], 4.7.
Turning to `COc1cc([C@@H]2c3cc4c(cc3[C@@H](O[C@@H]3O[C@@H]5CO[C@@H](C)O[C@H]5[C@H](O)[C@H]3O)[C@H]3COC(=O)[C@H]23)OCO4)cc(OC)c1O` [Etoposide], the results for the drug sensitivity score in the test on MDA-MB-453 [1] and with MDA-MB-453 [2] were 2.8 and 2.9, respectively.
